From patent US20240307374A1, “FORMULATION OF FURIN INHIBITOR FOR INHALATION” (BP ASSET V, INC., priority 2021, published 2024)
Counter-ions that a name gives are not always drawn. Marks after values point to notes of the source that are not given here.

Legend:
Assay type in all cases: physicochemical
[1] = Equilibrium solubility in pH buffers (pH 4.0-6.0) with pH adjustment; conditions: for S: solubility: with pH adjustment; for pH before adjustment (in brackets): 24 hours
Method: In details, ˜5 mg of solids were suspended into 1 mL of each medium with dosing conc. at ˜5 mg/mL. Additional solids were added into the sample to generate suspension if clear solution was obtained. The suspension was equilibrated via stirring (1000 rpm) for 24 hours. The pH of the suspension was adjusted when the final pH shifted above 0.3, and the samples were stirred for another 1.5 hours after pH adjustment. The suspension was centrifuged to obtain precipitate and supernatants. Solubility, purity and pH were tested for the supernatants after filtration, and isolated precipitate was tested by XRPD.
(§1) • 1. pH=3.0 buffer (50 mM HCl+KCl): Weigh 365.39 mg KCl into a 100 mL volumetric flask (VF), and add 0.1 mL 1M HCl into the VF, and dilute to volume with water. • 2. pH=4.0 buffer (50 mM citrate): Weigh 56.74 mg citric acid and 60.18 mg trisodium citrate into a 10 mL volumetric flask, and dilute to volume with water. • 3. pH=5.0 buffer (50 mM citrate) Weigh 11.12 mg citric acid and 95.38 mg trisodium citrate into a 10 mL volumetric flask, and dilute to volume with water. • 4. pH=6.0 buffer (50 mM citrate) Weigh 11.04 mg citric acid and 130.2 mg trisodium citrate into a 10 mL volumetric flask, and dilute to volume with water. • 5. pH=6.0 buffer (50 mM phosphate) Weigh 8.7 mg Na2HPO4 and 52.6 mg NaH2PO4 into a 10 mL volumetric flask, and dilute to volume with water. • 6. pH=7.0 buffer (50 mM phosphate) Weigh 23.47 mg Na2HPO4 and 43.34 mg NaH2PO4into a 10 mL volumetric flask, and dilute to volume with water. • 7. pH=8.0 buffer (50 mM phosphate) Weigh 31.64 mg Na2HPO4 and 67.18 mg NaH2PO4into a 10 mL volumetric flask, and dilute to volume with water.

[2] = Equilibrium solubility in pH buffers (3.0-8.0), 20% captisol and water; conditions: 24 hrs; for S: solubility: RT
Method: Additional solids were added into the sample to generate suspension if clear solution obtained. The suspension was equilibrated via stirring (1000 rpm). The suspension was centrifuged to obtain precipitate and supernatants.
Solubility and pH were tested for the supernatants after filtration, and isolated precipitate was tested by XRPD.
as §1

Grinding stability = conditions: ~30 mg ground manually in a mortar for about 5 minutes
[3] = DVS (dynamic vapor sorption) moisture uptake; conditions: for Moisture Uptake (DVS): 25° C.; for form change after DVS test (XRPD): XRPD before and after DVS
Method: (FIG. 5). Sample weight decreased rapidly when humidity decreased from 10% to 0%, which might be caused by loss of crystalline water.
DVS was measured via a SMS (Surface Measurement Systems) DVS Intrinsic.

[4] = Approximate solubility at RT; conditions: CHCl3, RT, solvent for freeform isolation
Method: Four freeform isolation experiments were performed in different solvent with different acids. Solids were obtained in DCM/HCl and CHCl3/HCl system.
Approximately 2 mg solids were added into a 3-mL glass vial. Solvents in the following table were then added stepwise (50-50-200-700[…] for each step) into the vials and stirred until the solids were dissolved or a total volume of 1 mL was reached. The solubility results were used to guide the solvent selection in polymorph formation.

[5] = pH = 4.0 buffer (50 mM citrate)
[6] = pH = 4.0 buffer (50 mM citrate), RT
[7] = pH = 5.0 buffer (50 mM citrate)
[8] = pH = 5.0 buffer (50 mM citrate), RT
[9] = pH = 6.0 buffer (50 mM citrate)
[10] = pH = 6.0 buffer (50 mM citrate), RT
[11] = pH = 6.0 buffer (50 mM phosphate)
[12] = pH = 6.0 buffer (50 mM phosphate), RT
[13] = pH = 3.0 buffer (50 mM HCl + KCl)
[14] = pH = 7.0 buffer (50 mM phosphate)
[15] = pH = 8.0 buffer (50 mM phosphate)

Structure (SMILES): CC(=O)NCC1CCN(Cc2cc(Oc3ccc(N4CCN(CCC(=O)O)CC4)nc3)nc(-c3cc(Cl)cc(Cl)c3)c2)CC1 [HCl salt Type F]
- solubility at 24 h ([1]; 50 mM pH 4.0-6.0 buffers, pH 4, aqueous buffer, thermodynamic from solid, 50 mM pH 4.0-6.0 buffers with pH adjustment, RT, read-out: solubility in pH buffers (overall bound)): < 6800 µg/mL
- Area % (purity of supernatant) [1, 5]: 99.0 Area %
- FC: form change (XRPD of precipitate) [1, 5]: Low (Low; low crystallinity)
- pH (final, after adjustment where adjusted) [1, 5]: 4.0
- S: solubility [1, 6]: 1520 µg/mL
- Area % (purity of supernatant) [1, 7]: 99.6 Area %
- FC: form change (XRPD of precipitate) [1, 7]: Low (Low; low crystallinity)
- pH (final, after adjustment where adjusted) [1, 7]: 4.9
- S: solubility [1, 8]: 2320 µg/mL
- Area % (purity of supernatant) [1, 9]: 99.0 Area %
- FC: form change (XRPD of precipitate) [1, 9]: 8 (3/4/6/7/8: new Form 3/4/6/7/8)
- pH (final, after adjustment where adjusted) [1, 9]: 5.7
- S: solubility [1, 10]: 1150 µg/mL
- Area % (purity of supernatant) [1, 11]: 98.9 Area %
- FC: form change (XRPD of precipitate) [1, 11]: Low (Low; low crystallinity)
- pH (final, after adjustment where adjusted) [1, 11]: 5.9*
- pH before adjustment (in brackets) [1, 11]: (3.9)
- S: solubility [1, 12]: 430 µg/mL
- solubility at 24 h ([2]; 50 mM pH buffers, pH 3.0-8.0, 21 °C, pH 3, aqueous buffer, thermodynamic from solid, 50 mM pH buffers pH 3.0-8.0, RT, read-out: solubility in pH buffers (overall bound)): < 8000 µg/mL
- pH of supernatant (final pH) ([2]; 20% Captisol (pH = 5.0, w/v)): 3.5
- S: solubility ([2]; 20% Captisol (pH = 5.0, w/v)): >48.0^1 mg/mL
- FC: form change (XRPD of precipitate) ([2]; H2O): 5 (1/2/3/4/5: new Form 1/2/3/4/5)
- pH of supernatant (final pH) ([2]; H2O): 2.4
- S: solubility ([2]; H2O): 4.24 mg/mL
- FC: form change (XRPD of precipitate) [2, 13]: 5 (1/2/3/4/5: new Form 1/2/3/4/5)
- pH of supernatant (final pH) [2, 13]: 2.7
- S: solubility [2, 13]: 2.77 mg/mL
- FC: form change (XRPD of precipitate) [2, 5]: Low (Low: low crystallinity)
- pH of supernatant (final pH) [2, 5]: 3.9
- S: solubility [2, 5]: 1.12 mg/mL
- FC: form change (XRPD of precipitate) [2, 7]: Low (Low: low crystallinity)
- pH of supernatant (final pH) [2, 7]: 5.0
- S: solubility [2, 7]: 2.64 mg/mL
- FC: form change (XRPD of precipitate) [2, 9]: A^
- pH of supernatant (final pH) [2, 9]: 5.8
- S: solubility [2, 9]: 0.62 mg/mL
- FC: form change (XRPD of precipitate) [2, 14]: A^+
- pH of supernatant (final pH) [2, 14]: 6.5
- S: solubility [2, 14]: 0.06 mg/mL
- FC: form change (XRPD of precipitate) [2, 15]: A^+
- pH of supernatant (final pH) [2, 15]: 7.2
- S: solubility [2, 15]: 0.02 mg/mL
- crystallinity after grinding (XRPD) (Grinding stability): decreased after grinding
- Moisture Uptake (DVS) ([3]; from 20% RH to 80% RH): 1.4 (from 20% RH to 80% RH)
- form change after DVS test (XRPD) [3]: No form change

Structure (SMILES): CC(=O)NCC1CCN(Cc2cc(Oc3ccc(N4CCN(CCC(=O)O)CC4)nc3)nc(-c3cc(Cl)cc(Cl)c3)c2)CC1 [Fumarate Type A]
- Area % (purity of supernatant) [1, 5]: 99.3 Area %
- FC: form change (XRPD of precipitate) [1, 5]: 4 (3/4/6/7/8: new Form 3/4/6/7/8)
- pH (final, after adjustment where adjusted) [1, 5]: 4.0
- S: solubility [1, 6]: 3040 µg/mL
- Area % (purity of supernatant) [1, 7]: 99.4 Area %
- FC: form change (XRPD of precipitate) [1, 7]: 4 (3/4/6/7/8: new Form 3/4/6/7/8)
- pH (final, after adjustment where adjusted) [1, 7]: 4.9*
- pH before adjustment (in brackets) [1, 7]: (4.1)
- S: solubility [1, 8]: 19300 µg/mL
- Area % (purity of supernatant) [1, 9]: 98.6 Area %
- FC: form change (XRPD of precipitate) [1, 9]: 7 (3/4/6/7/8: new Form 3/4/6/7/8)
- pH (final, after adjustment where adjusted) [1, 9]: 6.1*
- pH before adjustment (in brackets) [1, 9]: (5.0)
- S: solubility [1, 10]: 240 µg/mL
- Area % (purity of supernatant) [1, 11]: 95.6 Area %
- pH (final, after adjustment where adjusted) [1, 11]: 6.2*
- pH before adjustment (in brackets) [1, 11]: (4.6)
- S: solubility [1, 12]: 90 µg/mL
- pH of supernatant (final pH) ([2]; 20% Captisol (pH = 5.0, w/v)): 4.3
- S: solubility ([2]; 20% Captisol (pH = 5.0, w/v)): 29.6 mg/mL
- FC: form change (XRPD of precipitate) ([2]; H2O): 4 (1/2/3/4/5: new Form 1/2/3/4/5)
- pH of supernatant (final pH) ([2]; H2O): 3.8
- S: solubility ([2]; H2O): 1.85 mg/mL
- FC: form change (XRPD of precipitate) [2, 13]: 5 (1/2/3/4/5: new Form 1/2/3/4/5)
- pH of supernatant (final pH) [2, 13]: 3.5
- S: solubility [2, 13]: 0.65 mg/mL
- FC: form change (XRPD of precipitate) [2, 5]: 4 (1/2/3/4/5: new Form 1/2/3/4/5)
- pH of supernatant (final pH) [2, 5]: 4.1
- S: solubility [2, 5]: 3.45* mg/mL
- FC: form change (XRPD of precipitate) [2, 7]: 4 (1/2/3/4/5: new Form 1/2/3/4/5)
- pH of supernatant (final pH) [2, 7]: 4.8
- S: solubility [2, 7]: 7.79 mg/mL
- FC: form change (XRPD of precipitate) [2, 9]: 4 (1/2/3/4/5: new Form 1/2/3/4/5)
- pH of supernatant (final pH) [2, 9]: 5.1
- S: solubility [2, 9]: 20.6 mg/mL
- pH of supernatant (final pH) [2, 14]: 6.6
- S: solubility [2, 14]: 0.05 mg/mL
- pH of supernatant (final pH) [2, 15]: 7.2
- S: solubility [2, 15]: 0.02 mg/mL
- crystallinity after grinding (XRPD) (Grinding stability): decreased after grinding
- Moisture Uptake (DVS) ([3]; from 30% RH to 80% RH): 2.5 (from 30% RH to 80% RH)
- form change after DVS test (XRPD) [3]: crystallinity of fumarate Type A decreased

Structure (SMILES): CC(=O)NCC1CCN(Cc2cc(Oc3ccc(N4CCN(CCC(=O)O)CC4)nc3)nc(-c3cc(Cl)cc(Cl)c3)c2)CC1 [starting material]
- solubility [4]: S > 50.5 mg/mL
- Moisture Uptake (DVS) ([3]; from 10% RH to 80% RH): 0.7%
- form change after DVS test (XRPD) [3]: no form change
